Assay results from a melting point compilation (Tetko et al.; mined from patent text by program, amines drawn as free bases though some values may be those of a salt).

SMILES	melting point [°C]
COCCOc1ccc(/C=C/C(=O)NS(=O)(=O)CC(F)(F)F)c(Oc2ncc(C(F)(F)F)cc2Cl)c1	146 to 148
O=c1ccc(-c2ccsc2)n[nH]1	169 to 171
COc1cccc2c3c(c(=O)[nH]c12)CCN3c1ccccc1C	166 to 168
CC(=O)N1CCC(Oc2c(F)c(F)c(F)c(F)c2F)CC1	60 to 65
Cc1cc(Cl)ccc1-n1cnnc1C(F)(F)F	90
CCCn1c(=O)c2[nH]c(C34CC5CC(CC(C5)C3)C4)nc2n(CCC)c1=O	169 to 171
CC(=O)Oc1ccccc1NC(=O)c1cc(Cl)c(OC(C)=O)c(Cl)c1	154 to 156
COc1ccc2c(n1)c(CCNC(=O)c1ccco1)c1n2CCCO1	139 to 140
CCCC1(C)CC(=O)c2ccc(OCc3ccccc3)c(C)c2O1 (stereo not drawn)	45
CN(CCO)c1nc2ccccc2o1	62 to 63
COc1ccc2c(c1)c1c(n2Cc2ccccc2)CCCC1C(N)=O (stereo not drawn)	154 to 156
CN1CCC2(C)c3cc(OC(=O)OC(C)(C)C)cc(Br)c3N(C)C12 (stereo not drawn)	146 to 148
Cc1c(NC(=O)c2ccc(OC[C@@H]3CCCO3)cc2)ccc2cc(CNCC3CCOCC3)cnc12	92 to 94
CCSc1nc2c(C)sc(C(=O)OC)c2n1Cc1ccc(-c2ccccc2C#N)cc1	149 to 151
O=C(O)C(=Cc1cccnc1)c1ccc(Cl)cc1Cl	208 to 211
CO[Si](OC)(OC)c1ccc(C#Cc2ccc(C#Cc3ccc([Si](OC)(OC)OC)cc3)cc2)cc1	164 to 166
OC1CSC(Oc2ccc(-c3ccncc3)nc2)C(O)C1O (stereo not drawn)	248
O=C(CC1(O)CCC1)N[C@H]1CC[C@H](CCN2CCN(c3nccc4c3CCO4)CC2)CC1	155
CCC(CO)Nc1cc(C)nc(Oc2c(C)cc(Cl)cc2C)c1CO (stereo not drawn)	133 to 135
CCOC(=O)C(=Cc1cccn2cc(C)nc12)N=[N+]=[N-]	121 to 123
C=CCOc1ccc(C[C@H](NC(C)=O)C(=O)OCC)cc1	69 to 70
Cc1nc(O)cc(C2(c3ccc(Cl)cc3)CCC2)n1	130 to 140
CCC[C@H](NC(=O)/C=C/S(=O)(=O)c1ccccc1)C(=S)OC	131 to 132
O=c1n(CCCCl)nc2n1-c1ccccc1OC2	77 to 78
O=C(Cc1ccc(-c2ccc(C(CC3CCOCC3)c3ccc(S(=O)(=O)C4CC4)cc3)[nH]2)nc1)N1CCC1 (stereo not drawn)	94 to 98

SMILES	melting point [°C]
COc1c(C=O)c2cc(Cl)c(Cl)cc2n1C1CC(O)C(CO)O1 (stereo not drawn)	186 to 187
Cc1c(Cc2cccc(C(F)(F)F)c2)oc2cccc(-c3cccc(C(=O)O)c3)c12	169 to 170
CCCCOc1ccc2[nH]c(C(=O)O)cc2c1	153
COC(=O)c1nc(NC(=O)CCCOc2cccc(CN3CCCCC3)c2)n(C)n1	108 to 110
COc1ccccc1N1CCN(CCN(C(=O)C2CCCCC2)c2ccccc2OCC(F)(F)F)CC1	110 to 112
CC1(C)COc2cc3c(cc21)C1(CO3)C(=O)N(Cc2ccc(C(F)(F)F)o2)c2ccccc21 (stereo not drawn)	155 to 160
CN(C)CCOc1ccccc1-c1cc(NC(N)=O)c(C(N)=O)s1	180
CC(C)c1nc(CN2C(=O)C3(COc4cc5c(cc43)OCO5)c3c(Cl)cccc32)no1 (stereo not drawn)	165 to 167
NC(=O)C(OCc1ccc(-c2ccc(Cl)cc2)cc1)(C(F)(F)F)C(F)(F)F	123 to 124
CCNC(=N)NC(=O)Cc1ccc(Cl)cc1	146 to 147
COc1c(C=Cc2ccc(C=CC3=C(C#N)C(=C(C#N)C#N)OC3(C)C)s2)cc2c3c1CCCN3CCC2	201 to 204
CCOc1ccc(-c2nc(CCC(=O)c3ncccc3OC)cs2)cc1OCC	79.2 to 79.7
O=C(CN(CCOCc1ccccc1)Cc1ccccc1)Nc1ccc2c3c(nn2CCN(CCOCc2ccccc2)Cc2ccccc2)-c2cc(O)ccc2Oc13	106 to 110
C#CC1(O)C=CC2C3CCC4=CC(=O)CCC4C3C(Cl)CC21CC (stereo not drawn)	202
COC(=O)C1(C)OCC(c2ccccc2)(c2ccccc2)CO1	116
CN(C)CCCNc1ccc([N+](=O)[O-])cc1	60 to 61.5
CN1C(=O)C(C)(C)N=C(c2ccccc2F)c2cc(NC(=O)OCc3ccccc3)cc(Cl)c21	125 to 127
O=C(NCc1ccc(Cl)cc1)c1cn2c3c(cc(CN4CCOCC4)cc3c1=O)OC(c1ccccc1O)C2 (stereo not drawn)	239
NS(=O)(=O)c1cc(C(=O)O)cc(SCc2ccccc2)c1Oc1ccccc1	235 to 236
CCOC1CCC(=O)N1S(=O)(=O)c1ccc(OC)cc1 (stereo not drawn)	112 to 113
CCCc1cn(C)cc(-c2cccc(C(F)(F)F)c2)c1=S	145 to 148
Fc1cc(CC2(Cc3ccncc3)c3cccnc3-c3ncccc32)ccn1	228 to 230
Cn1c(CCNC(=O)C(F)(F)F)cc2cccc(F)c21	108 to 110
Cc1ccc(CN2CCSC2=O)cc1	49 to 50
COC(=O)c1sc2cc(OC)ccc2c1C	118 to 120

SMILES	melting point [°C]
CC1(C)CC(=O)C2C(=NC3=C(C(=O)CC(C)(C)C3)C2c2ccc(F)c(C#N)c2)C1 (stereo not drawn)	274 to 275
CC(C)S(=O)(=O)c1ccc(Oc2ccc([N+](=O)[O-])c(NCCC#N)c2)c(Cl)c1	140
CCCC(NC(=O)C1CC(=O)c2cc(F)ccc2O1)c1ccccc1 (single isomer, unassigned; (+))	138
CCc1cccc(CNC[C@@H](O)[C@H](Cc2cc(F)cc(F)c2)NC(=O)N2CCC(CS(C)(=O)=O)CC2)c1	130 to 134
Cc1ccccc1[C@@H]1CN(C(=O)C2CCN(C(=O)CO)CC2)CC[C@H]1C(=O)N(C)Cc1cc(C(F)(F)F)cc(C(F)(F)F)c1 (relative stereo)	173 to 174
CN1CCN(c2cccc3ccc(Nc4nc(Cc5ccccc5)cs4)cc23)CC1	157 to 160
COc1cc(CCl)ccc1OCc1nc(-c2cccc(C#N)c2)oc1C	150 to 151
COc1ccc2c(c1)C(=NOCCN(C)C)c1c-2c(N2CCNCC2)nc2ccccc12	84 to 86
CC(=N)Nc1ccc(CCc2nc(NC(C)=O)sc2Cc2ccc(S(C)(=O)=O)cc2)cc1	81.5 to 83
c1ccc(-c2ccc(N(c3ccccc3)c3ccccc3)cc2)cc1	117 to 118
COc1ccc(C2=C(c3ccc(S(C)(=O)=O)cc3)CCC2)cc1F	128 to 129
CCCCNC(=S)NC(Cc1ccccc1)C(=O)Nc1c(C(C)C)cccc1C(C)C (stereo not drawn)	214 to 215
NCCCCN1C(=O)NC(c2ccccc2)(c2ccccc2)C1=O	137 to 138
COc1ccc(C=CC(=O)O)cc1-c1cc2c(cc1OCCCO)C(C)(C)CCC2(C)C	198 to 200
CCCc1cc2cc(O)c(Cl)c(Cl)c2s1	50 to 51
COCOc1ccc(C=CC(=O)c2c(OCOC)cc(OCOC)c(CC=C(C)C)c2O)cc1OC	62.5 to 63.5
CC(=NOCCO)c1ccc(N(C)S(=O)(=O)c2ccccc2)cc1	76 to 77
N#Cc1nc(Cl)ccc1N	162 to 165
Cc1ccc(C(=O)NC(NC(=S)Nc2c(F)cccc2F)C(F)(F)F)cc1 (stereo not drawn)	185 to 186
COc1ccc2cc([C@H](C)C(=O)OCC(=O)O)ccc2c1	122 to 123
CCn1c(=O)c(C(=O)O)nc2ccc(F)cc21	162 to 164
CN1CC[C@]2(c3ccccc3)CCCC[C@H]2C1 (relative stereo)	72 to 73
CCOC(=O)c1cc(CC)cnc1CNC(C)(C(N)=O)C(C)C (stereo not drawn)	68 to 72
Cc1nc(NC(=O)c2ccncc2)sc1C(=O)NCc1ccccc1	171 to 172
N#Cc1cnn(-c2ccc(Cl)c(Cl)c2Cl)c1C=CC(=O)O	215 to 219

SMILES	melting point [°C]
CCn1c(C(O)(Cc2ccccc2)Cc2ccccc2)nc(-c2ccncc2)c1-c1ccc(Cl)cc1	116 to 117
Fc1ccc(-c2[nH]c(C3CCN(Cc4ccccc4)CC3)nc2-c2ccncc2)cc1	212 to 215
COc1cc(-c2n[nH]c(SC)c2C)c(F)cc1Cl	95 to 100
C=CCOc1ccc(C(=O)C=Cc2cccnc2)c(O)c1	115 to 117
COC[C@@H](C)N1Cc2c(ccc(Cl)c2NC(=O)c2ccc(F)c(C(F)(F)F)c2)C1=O	131 to 132
O=C(NCc1ccccc1-c1ccccc1C(=O)NCCc1ccccn1)OCc1ccccc1	140
CCN1Cc2c(cc3ccc4c(c3c2-c2ccc3c(c2)OCO3)OCO4)C1=O	210 to 212
CN1C(=O)c2ccc(NCC(O)CCl)cc2C1=O (stereo not drawn)	136 to 138
Nc1ccc(N2CCc3ccncc3C2)cc1	> 220
COc1cc2cc(-c3ccccc3Cl)sc2c(Cl)c1Cl	170 to 171
CC(C)(C)OC(=O)N1CCN(c2nsnc2Cl)CC1	83 to 86
CCOC(=O)C1CCC2(C)C(=CC(=O)C3C4CCC(=O)C4(C)CCC32)C1 (stereo not drawn)	187 to 188
CN1C(=O)NC(N)C1=O (stereo not drawn)	122 to 125
NS(=O)(=O)c1cc(C(=O)OCC(=O)N2CCC(CCO[N+](=O)[O-])CC2)c(NCc2ccco2)cc1Cl	170
O=C1C(=Cc2ccc(Cl)cc2)C(c2ccc(Cl)cc2)Oc2ccc(O)cc21 (stereo not drawn)	228 to 230
N#Cc1nn(-c2ccc(C=O)cc2)nc1-c1ccccc1	111 to 115
CCCCc1oc2ccc(CO)cc2c1C1(c2ccc(O)cc2)OCCO1	100 to 101
CS(=O)(=O)c1ccc(-c2c(-c3ccc(F)cc3)c(OCc3ccccc3)nn2Cc2ccccc2)cc1	174 to 175
O=C(O)C1CCc2c(OCc3ccccc3)cccc21 (stereo not drawn)	133
Cc1ccc([C@@H]2CO[C@@H](c3ccc(C)cc3)CO2)cc1	200
CC[Si](CC)(CC)c1cccc(-c2ccccc2)c1O	44 to 46
CC(C)(O)/C=C\C(C)(C)O	64
COc1ccc(CN(CCN(C)CCNC(=O)NCCSCc2csc(NC(=N)N)n2)c2ccccn2)cc1	84
